# Measured values as given in patent US9163007B2, “5-substituted indazoles as kinase inhibitors” (AbbVie Inc., priority 2007, dated 2015).
# Like-named read-outs stand apart in the source and are kept apart here.
# Experiments:
# Cdc7/Dbf4 = Cdc7/Dbf4 (Homo sapiens (Human), UniProt O00311); assay: Cdc7 Inhibition Assay; assay type: biochemical;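 note: reaction mixtures incubated 30 min on streptavidin-coated plates, then quantified by scintillation counting, with inhibition curves fitted by non-linear regression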
# Method: The reactions were incubated for 30 minutes on streptavidin-coated plates, washed, and quantified using a TopCount scintillation plate reader (Packard). IC50 values are determined via non-linear regression fitting of the data.
# [1] = system: phospho-MCM2 Ser53 in HCT-116 cells; assay: Phospho-MCM2 ELISA; assay type: cell-based; conditions: Homo sapiens, treated 6 hours
# Method: HCT-116 cells (20,000/well; 96-well format) were treated for 6 hours with increasing concentrations of compounds (0.01-10 μM in half-log increments). After removing the medium/inhibitor, the cells were frozen for 5 minutes and treated on ice with 20 μL of lysis buffer (Invitrogen #FNN0011) for 30 minutes. 80 μL of cold 2% BSA (in PBS) were then added to each well before transferring 80 μL to MCM2 antibody-coated plates (Bethyl #A300-122A, lot A300-122A-1). The plates were incubated overnight at 4° C., washed, and then incubated with the sandwich antibody (1:100 rabbit anti-human phospho-MCM2 Ser53; Bethyl #A300-756A, lot A300-756A-2) for 2 hours at room temperature. After another series of washes the samples are incubated for 1 hour with detection antibody (XSA-grade goat anti-rabbit-HRP, KPL #074-15-061, lot 50884, diluted to 2 μg/mL in 2% BSA). Plates were washed, developed using luminescence substrate (SuperSignal Pico for ELISA, Pierce #37069, Lot. HB101408), and read on a Molecular Devices M5 luminometer.
# HCT-116 cells = assay: AlamarBlue Cell Viability Assays; assay type: cell-based; conditions: Homo sapiens, treated 72 hours
# Method: AlamarBlue Cell Viability Assays
# HCT-116 cells (3,000/well; 96-well format) were treated for 72 hours with increasing concentrations of compounds (0.01-30 μM in half-log increments). The cells were then incubated in fresh media with 10% AlamarBlue reagent (Invitrogen #DAL1100). AlamarBlue reactions were incubated according to the manufacturer's instructions (approximately 4 hours) and then analyzed using an fmax fluorescence microplate reader (Molecular Devices) using excitation/emission wavelengths of 544/595 nm. Data were analyzed using SOFTmax PRO software provided by the manufacturer.
# rats [2] = assay: Spinal nerve (L5/L6) ligation model of neuropathic pain (Chung); assay type: in vivo, rat; conditions: i.p. or p.o., doses ranging from 1-150 mg/kg
# Description: Spinal Nerve (L5/L6) Ligation Model of Neuropathic Pain.
# As previously described in detail by Kim and Chung (Kim S. H.; Chung J. M. An experimental model for peripheral neuropathy produced by segmental spinal nerve ligation in the rat. Pain 1992, 50, 355-363), a 1.5 cm incision was made dorsal to the lumbosacral plexus. In anesthetized rats, the paraspinal muscles (left side) were separated from the spinous processes, the L5 and L6 spinal nerves isolated, and tightly ligated with 3-0 silk threads. Following hemostasis, the wound was sutured and coated with antibiotic ointment. The rats were allowed to recover and then placed in a cage with soft bedding for 14 days before behavioral testing for mechanical allodynia.
# rats [3] = assay: Sciatic nerve ligation model of neuropathic pain (Bennett); assay type: in vivo, rat; conditions: i.p. or p.o., doses ranging from 1-150 mg/kg
# Description: Sciatic Nerve Ligation Model of Neuropathic Pain.
# As previously described in detail by Bennett and Xie (Bennett G. J.; Xie Y-K. A peripheral mononeuropathy in rat that produces disorders of pain sensation like those seen in man. Pain 1988, 33, 87-107), in anesthetized rats, a 1.5 cm incision was made 0.5 cm below the pelvis and the biceps femoris and the gluteous superficialis (right side) were separated. The sciatic nerve was exposed, isolated, and four loose ligatures (5-0 chromic catgut) with 1 mm spacing were placed around it. The rats were allowed to recover and then placed in a cage with soft bedding for 14 days before behavioral testing for mechanical allodynia as described above. In addition, animals were also tested for cold allodynia by dipping their hind paw in a cold-water bath (4.5° C.) and determining the paw withdrawal latency.
# Balb/c mice = assay: Murine model of acute asthma: airway hyperresponsiveness (lung resistance); assay type: in vivo, mouse; conditions: OVA-challenged mice, 3 mg/kg orally once a day
# Description: Murine Asthma Model of Acute Asthma
# Female Balb/c mice were purchased from Taconic and housed at Abbott Bioresearch Center. Animals were utilized at 8-12 weeks of age. All protocols were approved by the Institutional Animal Care and Use Committee (IACUC). Dexamethasone (Dex), and ovalbumin (OVA) were purchased from Sigma. Endotoxin was removed from ovalbumin using DetoxiGel (Pierce) according to manufacturer's protocol and the final material contained less than 0.1 EU/mg protein. Alum Imject was purchased from Pierce.
# Animals were sensitized to OVA on day 0 and 7 with an i.p. injection of 8 μg OVA in 2 mg alum. On days 14 and 16, animals received intra-nasal challenge of 0.3 μg OVA in 50 μl sterile PBS. […] All endpoints were analyzed on day 17, 24 hours after the second OVA challenge. AHR was assessed using unconscious restrained whole body plethysmography. […] Pressure in the lung and flow within the plethysmograph were measured using transducers, and lung resistance was calculated as pressure/flow using Biosystem Xa software. Baseline resistance as well as resistance following challenge with methacholine (3, 10 or 30 mg/mL) that was delivered with an inline ultrasonic-nebulizer were measured. […] Lavage fluid was analyzed for IL-13, AMCase, Muc5ac and cellular infiltrates. […]
# [4] = 11 data point, read-out: Ki (μM) 11 data point
# Chain of Cdc7/Dbf4 (O00311 whole entry): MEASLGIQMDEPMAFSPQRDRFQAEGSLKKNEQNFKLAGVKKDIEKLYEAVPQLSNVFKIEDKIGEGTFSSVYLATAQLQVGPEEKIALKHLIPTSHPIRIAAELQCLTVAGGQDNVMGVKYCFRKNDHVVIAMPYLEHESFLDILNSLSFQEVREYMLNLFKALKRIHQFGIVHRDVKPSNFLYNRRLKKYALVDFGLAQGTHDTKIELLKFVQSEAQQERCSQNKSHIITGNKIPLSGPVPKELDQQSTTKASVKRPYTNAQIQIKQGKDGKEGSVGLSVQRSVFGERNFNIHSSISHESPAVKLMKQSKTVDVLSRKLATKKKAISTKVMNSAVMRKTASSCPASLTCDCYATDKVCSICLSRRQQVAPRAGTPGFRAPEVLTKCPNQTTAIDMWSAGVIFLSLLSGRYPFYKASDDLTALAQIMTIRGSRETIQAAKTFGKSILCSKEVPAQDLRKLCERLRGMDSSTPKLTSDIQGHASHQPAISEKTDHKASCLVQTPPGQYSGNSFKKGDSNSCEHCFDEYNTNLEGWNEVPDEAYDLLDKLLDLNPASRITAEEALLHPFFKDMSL
# Chain of Cdc7/Dbf4 (Q9UBU7 whole entry partner): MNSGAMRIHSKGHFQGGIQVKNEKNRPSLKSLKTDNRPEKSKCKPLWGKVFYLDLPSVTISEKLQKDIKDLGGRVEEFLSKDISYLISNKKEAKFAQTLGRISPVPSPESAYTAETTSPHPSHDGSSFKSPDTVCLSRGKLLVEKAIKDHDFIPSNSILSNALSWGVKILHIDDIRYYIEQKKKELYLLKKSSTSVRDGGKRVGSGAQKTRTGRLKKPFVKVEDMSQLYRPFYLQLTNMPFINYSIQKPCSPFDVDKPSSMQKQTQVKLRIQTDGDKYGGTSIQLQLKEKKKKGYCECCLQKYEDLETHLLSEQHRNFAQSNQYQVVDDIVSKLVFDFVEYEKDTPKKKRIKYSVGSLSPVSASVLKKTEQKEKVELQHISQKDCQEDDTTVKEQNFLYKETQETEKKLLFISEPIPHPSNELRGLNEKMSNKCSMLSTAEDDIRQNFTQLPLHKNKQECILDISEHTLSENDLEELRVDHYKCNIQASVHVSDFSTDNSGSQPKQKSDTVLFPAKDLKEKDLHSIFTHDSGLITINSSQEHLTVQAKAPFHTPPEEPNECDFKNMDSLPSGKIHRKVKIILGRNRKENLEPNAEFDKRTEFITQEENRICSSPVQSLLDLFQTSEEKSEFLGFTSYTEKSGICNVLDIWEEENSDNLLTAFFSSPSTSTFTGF
SMILES,Ki (Cdc7/Dbf4; [4]),EC50 [1],EC50 (HCT-116 cells),"Ki (Cdc7/Dbf4; 6 data point, read-out: Ki (μM) 6 data point)",inhibition of tactile allodynia (rats [2]),inhibition of tactile allodynia (rats [3]),methacholine-induced airways resistance (Balb/c mice)
"Nc1n[nH]c2ccc(-c3nnn(Cc4ccccc4)c3CC3CCCCC3)cc12 [Example 403, 5-[1-benzyl-5-(cyclohexylmethyl)-1H-1,2,3-triazol-4-yl]-1H-indazol-3-amine]",0.0082 µM,> 10 µM,8 nM,–,–,–,–
"Nc1n[nH]c2ccc(-c3nnn(Cc4ccccc4)c3-c3cccc(N4CCOCC4)c3)cc12 [Example 194, 5-[1-benzyl-5-(3-morpholin-4-ylphenyl)-1H-1,2,3-triazol-4-yl]-1H-indazol-3-amine]",0.068 µM,> 10 µM,4390 nM,–,–,–,–
"Clc1ccccc1CNc1n[nH]c2ccc(-c3nnn(Cc4ccccc4)c3C3CC3)cc12 [Example 222, 5-(1-benzyl-5-cyclopropyl-1H-1,2,3-triazol-4-yl)-N-(2-chlorobenzyl)-1H-indazol-3-amine]",0.093 µM,> 10 µM,2110 nM,–,–,–,–
"NC(=O)N(Cc1ccccc1)c1n[nH]c2ccc(-c3nnn(Cc4ccccc4)c3C3CC3)cc12 [Example 262, N-benzyl-N-[5-(1-benzyl-5-cyclopropyl-1H-1,2,3-triazol-4-yl)-1H-indazol-3-yl]urea]",0.041 µM,> 10 µM,3420 nM,–,–,–,–
"O=C(N[C@H](CO)c1ccccc1)c1cc(-c2ccc3[nH]ncc3c2)on1 [Example 160, N-[(1S)-2-hydroxy-1-phenylethyl]-5-(1H-indazol-5-yl)isoxazole-3-carboxamide]",–,–,–,–,greater than 30%,greater than 30%,–
"C[C@@H]1C[C@H]2[C@@H]3CCC4=CC(=O)C=C[C@]4(C)[C@@]3(F)[C@@H](O)C[C@]2(C)[C@@]1(O)C(=O)CO [dexamethasone, Dexamethasone, reference compound]",–,–,–,–,–,–,4.76 cm H2O/mL/sec
"NC(=O)N(c1ccccc1Cl)c1n[nH]c2ccc(-c3nnn(Cc4ccccc4)c3C3CC3)cc12 [Example 263, N-[5-(1-benzyl-5-cyclopropyl-1H-1,2,3-triazol-4-yl)-1H-indazol-3-yl]-N-(2-chlorophenyl)urea]",0.022 µM,> 10 µM,1040 nM,–,–,–,–
"COCC(=O)Nc1n[nH]c2ccc(-c3cn(Cc4ccccc4)nn3)cc12 [Example 64, N-[5-(1-benzyl-1H-1,2,3-triazol-4-yl)-1H-indazol-3-yl]-2-methoxyacetamide]",0.015 µM,> 10 µM,422 nM,–,–,–,–

# Further lines, with some results ahead:
Ki (Cdc7/Dbf4; [4]),EC50 [1],EC50 (HCT-116 cells),"Ki (Cdc7/Dbf4; 6 data point, read-out: Ki (μM) 6 data point)",SMILES,inhibition of tactile allodynia (rats [2]),inhibition of tactile allodynia (rats [3]),methacholine-induced airways resistance (Balb/c mice)
0.0005 µM,0.671 µM,1500 nM,–,"Nc1n[nH]c2ccc(-c3nnn(Cc4ccccc4)c3-c3cccs3)cc12 [Example 406, 5-(1-benzyl-5-thien-2-yl-1H-1,2,3-triazol-4-yl)-1H-indazol-3-amine]",–,–,–
0.0009 µM,4.16 µM,2900 nM,0.0008 µM,"O=C(Nc1n[nH]c2ccc(-c3nnn(Cc4ccccc4)c3-c3ccccc3)cc12)c1ccccc1 [Example 198, N-[5-(1-benzyl-5-phenyl-1H-1,2,3-triazol-4-yl)-1H-indazol-3-yl]benzamide]",–,–,–
0.00225 µM,5.74 µM,1450 nM,–,"Cc1ccccc1-c1c(-c2ccc3[nH]nc(C)c3c2)nnn1Cc1ccccc1 [Example 162, 5-[1-benzyl-5-(2-methylphenyl)-1H-1,2,3-triazol-4-yl]-3-methyl-1H-indazole]",–,–,–
0.0019 µM,5.32 µM,19200 nM,–,"Cn1cc(-c2c(-c3ccc4[nH]nc(N)c4c3)nnn2Cc2ccccc2)cn1 [Example 189, 5-[1-benzyl-5-(1-methyl-1H-pyrazol-4-yl)-1H-1,2,3-triazol-4-yl]-1H-indazol-3-amine]",–,–,–
0.00492 µM,> 10 µM,6720 nM,–,"c1ccc(Cn2cc(-c3ccc4[nH]nc(-c5cccs5)c4c3)nn2)cc1 [Example 401, 5-(1-benzyl-1H-1,2,3-triazol-4-yl)-3-thien-2-yl-1H-indazole]",–,–,–
